Results published in patent publication US20200045961A1, “HERBICIDAL MIXTURE FOR USE ON WEEDS” (Adama Agan Ltd., priority 2017, published 2020).

What was measured:
Experiment in all cases: Field trial, tank mix of Propaquizafop + Fomesafen on Soybean, weed control
Format in all cases: in vivo
[1] = test system: Acalypha indica
Text: (§1) In the context of the present subject matter, the term “synergy” is as defined by Colby S. R. in an article entitled “Calculation of the synergistic and antagonistic responses of herbicide combinations” published in the journal Weeds, 1967, 15, p. 20-22, incorporated herein by reference in its entirety. The action expected for a given combination of […] active ingredients can be calculated as follows: […]
(§2) When the percentage of herbicidal control observed for the combination is greater than the expected percentage, there is a synergistic effect. When the percentage of control observed for the combination is equal to the expected percentage, there is an additive effect and wherein the percentage of herbicidal control observed for the combination is lower than the expected percentage, there is an antagonistic effect.
(§3) The herbicides were applied using the following applications rates:
(§4) The applications were applied 20 DAS. Design & Plot size: RBD & 25 Sq.mt.
(§5) Species wise weed count may be recorded at 15, 30 and 45 DAA (Days After Application). A subjective score of damage done by the herbicide on the plants may be given based on the weed count compared to the untreated checks. A score of 100% indicated complete control and a score of 0% indicates zero herbicide effect.
(§6) The % control observed may be calculated as follows: […]
(§7) The synergy of the mixture of fomesafen and propaquizafop may be calculated using the formula: […]

[2] = test system: Amaranthus viridis
Text: as §1, §2, §3, §4, §5, §6, §7

[3] = test system: Commelina benghalensis
Text: as §1, §2, §3, §4, §5, §6, §7

[4] = test system: Digera arvensis
Text: as §1, §2, §3, §4, §5, §6, §7

[5] = test system: Echinochloa colona
Text: as §1, §2, §3, §4, §5, §6, §7

[6] = test system: Eleusine indica
Text: as §1, §2, §3, §4, §5, §6, §7

[7] = test system: Dinebra arabica
Text: as §1, §3, §4, §5

CS(=O)(=O)NC(=O)c1cc(Oc2ccc(C(F)(F)F)cc2Cl)ccc1[N+](=O)[O-] [Fomesafen, 5-[2-chloro-4-(trifluoromethyl)phenoxy]-N-(methylsulfonyl)-2-nitrobenzamide]
% control observed ([1]; 500 ml/Acre, 15DAA): 58.2% | % control observed ([1]; 500 ml/Acre, 30DAA): 55.4% | % control observed ([1]; 500 ml/Acre, 45DAA): 53.8% | % control observed ([1]; 750 ml/Acre, 15DAA): 63.8% | % control observed ([1]; 750 ml/Acre, 30DAA): 61.7% | % control observed ([1]; 750 ml/Acre, 45DAA): 60.6% | % control observed ([1]; 1000 ml/Acre, 15DAA): 75.9% | % control observed ([1]; 1000 ml/Acre, 30DAA): 73.6% | % control observed ([1]; 1000 ml/Acre, 45DAA): 72.6% | % control observed ([2]; 500 ml/Acre, 15DAA): 67.7% | % control observed ([2]; 500 ml/Acre, 30DAA): 66.9% | % control observed ([2]; 500 ml/Acre, 45DAA): 64.8% | % control observed ([2]; 750 ml/Acre, 15DAA): 71.3% | % control observed ([2]; 750 ml/Acre, 30DAA): 70.5% | % control observed ([2]; 750 ml/Acre, 45DAA): 69.1% | % control observed ([2]; 1000 ml/Acre, 15DAA): 74.7% | % control observed ([2]; 1000 ml/Acre, 30DAA): 73.7% | % control observed ([2]; 1000 ml/Acre, 45DAA): 71.1% | % control observed ([3]; 500 ml/Acre, 15DAA): 66.2% | % control observed ([3]; 500 ml/Acre, 30DAA): 64.2% | % control observed ([3]; 500 ml/Acre, 45DAA): 62.7% | % control observed ([3]; 750 ml/Acre, 15DAA): 72.8% | % control observed ([3]; 750 ml/Acre, 30DAA): 70.2% | % control observed ([3]; 750 ml/Acre, 45DAA): 69.7% | % control observed ([3]; 1000 ml/Acre, 15DAA): 77.8% | % control observed ([3]; 1000 ml/Acre, 30DAA): 75% | % control observed ([3]; 1000 ml/Acre, 45DAA): 72.5% | % control observed ([4]; 500 ml/Acre, 15DAA): 70% | % control observed ([4]; 500 ml/Acre, 30DAA): 68.5% | % control observed ([4]; 500 ml/Acre, 45DAA): 66.6% | % control observed ([4]; 750 ml/Acre, 15DAA): 74.2% | % control observed ([4]; 750 ml/Acre, 30DAA): 71.5% | % control observed ([4]; 750 ml/Acre, 45DAA): 70.5% | % control observed ([4]; 1000 ml/Acre, 15DAA): 78.2% | % control observed ([4]; 1000 ml/Acre, 30DAA): 75.2% | % control observed ([4]; 1000 ml/Acre, 45DAA): 74% | % control observed ([5]; 500 ml/Acre, 15DAA): 8.91% | % control observed ([5]; 500 ml/Acre, 30DAA): 6.65% | % control observed ([5]; 500 ml/Acre, 45DAA): 5.02% | % control observed ([5]; 750 ml/Acre, 15DAA): 14% | % control observed ([5]; 750 ml/Acre, 30DAA): 10.7% | % control observed ([5]; 750 ml/Acre, 45DAA): 7.5% | % control observed ([5]; 1000 ml/Acre, 15DAA): 18.2% | % control observed ([5]; 1000 ml/Acre, 30DAA): 15.8% | % control observed ([5]; 1000 ml/Acre, 45DAA): 13.6% | % control observed ([6]; 500 ml/Acre, 15DAA): 8.2% | % control observed ([6]; 500 ml/Acre, 30DAA): 4.7% | % control observed ([6]; 500 ml/Acre, 45DAA): 3.3% | % control observed ([6]; 750 ml/Acre, 15DAA): 12.6% | % control observed ([6]; 750 ml/Acre, 30DAA): 6.3% | % control observed ([6]; 750 ml/Acre, 45DAA): 5% | % control observed ([6]; 1000 ml/Acre, 15DAA): 17.1% | % control observed ([6]; 1000 ml/Acre, 30DAA): 8.9% | % control observed ([6]; 1000 ml/Acre, 45DAA): 7.5% | % control observed ([7]; 500 ml/Acre, 15DAA): 2.62% | % control observed ([7]; 500 ml/Acre, 45DAA): 0.21% | % control observed ([7]; 750 ml/Acre, 15DAA): 15.2% | % control observed ([7]; 750 ml/Acre, 30DAA): 11.1% | % control observed ([7]; 750 ml/Acre, 45DAA): 10% | % control observed ([7]; 1000 ml/Acre, 15DAA): 23.4% | % control observed ([7]; 1000 ml/Acre, 30DAA): 16.4% | % control observed ([7]; 1000 ml/Acre, 45DAA): 14.3%

CC(C)=NOCCOC(=O)[C@@H](C)Oc1ccc(Oc2cnc3cc(Cl)ccc3n2)cc1 [Propaquizafop, (R)-2-[[(1-methylethylidene)amino]oxy]ethyl 2-[4-[(6-chloro-2-quinoxalinyl)oxy]phenoxy]propanoate]
% control observed ([1]; 400 ml/Acre, 15DAA): 7.1% | % control observed ([1]; 400 ml/Acre, 30DAA): 3.7% | % control observed ([1]; 400 ml/Acre, 45DAA): 2.9% | % control observed ([1]; 500 ml/Acre, 15DAA): 25.2% | % control observed ([1]; 500 ml/Acre, 30DAA): 12.3% | % control observed ([1]; 500 ml/Acre, 45DAA): 9.8% | % control observed ([2]; 400 ml/Acre, 15DAA): 8.2% | % control observed ([2]; 400 ml/Acre, 30DAA): 2.6% | % control observed ([2]; 400 ml/Acre, 45DAA): 2.3% | % control observed ([2]; 500 ml/Acre, 15DAA): 13.6% | % control observed ([2]; 500 ml/Acre, 30DAA): 7.6% | % control observed ([2]; 500 ml/Acre, 45DAA): 7.1% | % control observed ([3]; 400 ml/Acre, 15DAA): 6.8% | % control observed ([3]; 400 ml/Acre, 30DAA): 3.2% | % control observed ([3]; 400 ml/Acre, 45DAA): 2% | % control observed ([3]; 500 ml/Acre, 15DAA): 16.6% | % control observed ([3]; 500 ml/Acre, 30DAA): 10.5% | % control observed ([3]; 500 ml/Acre, 45DAA): 7.7% | % control observed ([4]; 400 ml/Acre, 15DAA): 13.9% | % control observed ([4]; 400 ml/Acre, 30DAA): 9.3% | % control observed ([4]; 400 ml/Acre, 45DAA): 2.1% | % control observed ([4]; 500 ml/Acre, 15DAA): 19.5% | % control observed ([4]; 500 ml/Acre, 30DAA): 15.5% | % control observed ([4]; 500 ml/Acre, 45DAA): 14.4% | % control observed ([5]; 400 ml/Acre, 15DAA): 72.9% | % control observed ([5]; 400 ml/Acre, 30DAA): 70.8% | % control observed ([5]; 400 ml/Acre, 45DAA): 70.4% | % control observed ([5]; 500 ml/Acre, 15DAA): 75.8% | % control observed ([5]; 500 ml/Acre, 30DAA): 73.9% | % control observed ([5]; 500 ml/Acre, 45DAA): 72.9% | % control observed ([6]; 400 ml/Acre, 15DAA): 64% | % control observed ([6]; 400 ml/Acre, 30DAA): 56.7% | % control observed ([6]; 400 ml/Acre, 45DAA): 53.4% | % control observed ([6]; 500 ml/Acre, 15DAA): 65.5% | % control observed ([6]; 500 ml/Acre, 30DAA): 57.7% | % control observed ([6]; 500 ml/Acre, 45DAA): 55.2% | % control observed ([7]; 400 ml/Acre, 15DAA): 68.2% | % control observed ([7]; 400 ml/Acre, 30DAA): 67% | % control observed ([7]; 400 ml/Acre, 45DAA): 65% | % control observed ([7]; 500 ml/Acre, 15DAA): 72.3% | % control observed ([7]; 500 ml/Acre, 30DAA): 69.1% | % control observed ([7]; 500 ml/Acre, 45DAA): 66%
